Measured values as given in PubChem BioAssay (NCI).
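In this assay, cells in 96-well plates receive the compound at five concentrations for 48 hours. Endpoints are linearly interpolated between the surrounding concentrations. GI50 marks 50% less growth. TGI marks complete inhibition of growth.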

Tests used:
Test in all cases: DTP human tumour cell line panel, 48 h
SF-295 CNS = tested on: SF-295 CNS
MDA-MB-435 = tested on: MDA-MB-435
OVCAR-8 ovarian = tested on: OVCAR-8 ovarian
SK-MEL-2 melanoma = tested on: SK-MEL-2 melanoma
EKVX NSCLC = tested on: EKVX NSCLC
MDA-MB-231 breast = tested on: MDA-MB-231 breast
CAKI-1 renal = tested on: CAKI-1 renal
U251 CNS = tested on: U251 CNS
HCC-2998 colon = tested on: HCC-2998 colon
SW-620 colon = tested on: SW-620 colon
SNB-19 CNS = tested on: SNB-19 CNS
RXF 393 renal = tested on: RXF 393 renal
SF-268 CNS = tested on: SF-268 CNS
IGROV1 ovarian = tested on: IGROV1 ovarian
LOX IMVI melanoma = tested on: LOX IMVI melanoma
NCI-H23 lung = tested on: NCI-H23 lung
HS 578T breast = tested on: HS 578T breast
HT29 colon = tested on: HT29 colon
SK-OV-3 ovarian = tested on: SK-OV-3 ovarian
OVCAR-5 ovarian = tested on: OVCAR-5 ovarian
OVCAR-3 ovarian = tested on: OVCAR-3 ovarian
786-0 renal = tested on: 786-0 renal
UO-31 renal = tested on: UO-31 renal
RPMI-8226 leukemia = tested on: RPMI-8226 leukemia
MOLT-4 leukemia = tested on: MOLT-4 leukemia
SK-MEL-28 melanoma = tested on: SK-MEL-28 melanoma
TK-10 renal = tested on: TK-10 renal
UACC-257 melanoma = tested on: UACC-257 melanoma
NCI-H226 lung = tested on: NCI-H226 lung
NCI-H522 lung = tested on: NCI-H522 lung
KM12 colon = tested on: KM12 colon
SF-539 CNS = tested on: SF-539 CNS
HOP-92 NSCLC = tested on: HOP-92 NSCLC
PC-3 prostate = tested on: PC-3 prostate
MALME-3M melanoma = tested on: MALME-3M melanoma
A498 renal = tested on: A498 renal
K-562 leukemia = tested on: K-562 leukemia
HOP-62 NSCLC = tested on: HOP-62 NSCLC
NCI-H460 lung = tested on: NCI-H460 lung
HL-60(TB) leukemia = tested on: HL-60(TB) leukemia
OVCAR-4 ovarian = tested on: OVCAR-4 ovarian
ACHN renal = tested on: ACHN renal
COLO 205 colon = tested on: COLO 205 colon
SNB-75 CNS = tested on: SNB-75 CNS
T-47D breast = tested on: T-47D breast
CCRF-CEM leukemia = tested on: CCRF-CEM leukemia
SK-MEL-5 melanoma = tested on: SK-MEL-5 melanoma
SN12C renal = tested on: SN12C renal
MCF7 breast = tested on: MCF7 breast
A549 NSCLC = tested on: A549 NSCLC
HCT-116 colon = tested on: HCT-116 colon
DU-145 prostate = tested on: DU-145 prostate
HCT-15 colon = tested on: HCT-15 colon
BT-549 breast = tested on: BT-549 breast
M14 melanoma = tested on: M14 melanoma
NCI/ADR-RES ovarian = tested on: NCI/ADR-RES ovarian
UACC-62 melanoma = tested on: UACC-62 melanoma

`C=CC(=O)Nc1ccc(Nc2nccc(-c3ccc(N4CCCC4)c(C#N)c3)n2)cc1` was tested, and the GI50 (SF-295 CNS) was 9.44 µM, the TGI (SF-295 CNS) was over 25 µM and the GI50 (MDA-MB-435) was 7.09 µM. It also gave a TGI (MDA-MB-435) of over 25 µM, a GI50 (OVCAR-8 ovarian) of over 25 µM and a TGI (OVCAR-8 ovarian) of over 25 µM. The GI50 (SK-MEL-2 melanoma) was 22.7 µM, the TGI (SK-MEL-2 melanoma) was over 25 µM and the GI50 (EKVX NSCLC) was over 25 µM. It also gave a TGI (EKVX NSCLC) of over 25 µM, a GI50 (MDA-MB-231 breast) of over 25 µM and a TGI (MDA-MB-231 breast) of over 25 µM. The GI50 (CAKI-1 renal) was 4.6 µM, the TGI (CAKI-1 renal) was over 25 µM and the GI50 (U251 CNS) was 15.4 µM. The TGI (U251 CNS) was over 25 µM, the GI50 (HCC-2998 colon) was over 25 µM and the TGI (HCC-2998 colon) was over 25 µM. The GI50 (SW-620 colon) was 21.7 µM, the TGI (SW-620 colon) was over 25 µM and the GI50 (SNB-19 CNS) was over 25 µM. The TGI (SNB-19 CNS) was over 25 µM, the GI50 (RXF 393 renal) was 0.545 µM and the TGI (RXF 393 renal) was 1.71 µM. The GI50 (SF-268 CNS) was 15.8 µM, the TGI (SF-268 CNS) was over 25 µM and the GI50 (IGROV1 ovarian) was 1.85 µM. For the same compound, the TGI (IGROV1 ovarian) was over 25 µM, the GI50 (LOX IMVI melanoma) was over 25 µM and the TGI (LOX IMVI melanoma) was over 25 µM. It also gave a GI50 (NCI-H23 lung) of over 25 µM, a TGI (NCI-H23 lung) of over 25 µM and a GI50 (HS 578T breast) of 5.15 µM. It also gave a TGI (HS 578T breast) of over 25 µM, a GI50 (HT29 colon) of over 25 µM and a TGI (HT29 colon) of over 25 µM. It also gave a GI50 (SK-OV-3 ovarian) of over 25 µM, a TGI (SK-OV-3 ovarian) of over 25 µM and a GI50 (OVCAR-5 ovarian) of over 25 µM. For the same compound, the TGI (OVCAR-5 ovarian) was over 25 µM, the GI50 (OVCAR-3 ovarian) was over 25 µM and the TGI (OVCAR-3 ovarian) was over 25 µM. For the same compound, the GI50 (786-0 renal) was 0.663 µM, the TGI (786-0 renal) was 3.87 µM and the GI50 (UO-31 renal) was 1.06 µM. It also gave a TGI (UO-31 renal) of over 25 µM, a GI50 (RPMI-8226 leukemia) of 10.1 µM and a TGI (RPMI-8226 leukemia) of over 25 µM. The GI50 (MOLT-4 leukemia) was 7.43 µM, the TGI (MOLT-4 leukemia) was over 25 µM and the GI50 (SK-MEL-28 melanoma) was 4 µM. For the same compound, the TGI (SK-MEL-28 melanoma) was 13.1 µM, the GI50 (TK-10 renal) was 10.5 µM and the TGI (TK-10 renal) was over 25 µM. For the same compound, the GI50 (UACC-257 melanoma) was 5.37 µM, the TGI (UACC-257 melanoma) was 17 µM and the GI50 (NCI-H226 lung) was over 25 µM. For the same compound, the TGI (NCI-H226 lung) was over 25 µM, the GI50 (NCI-H522 lung) was 9.97 µM and the TGI (NCI-H522 lung) was over 25 µM. For the same compound, the GI50 (KM12 colon) was over 25 µM, the TGI (KM12 colon) was over 25 µM and the GI50 (SF-539 CNS) was 6.88 µM. For the same compound, the TGI (SF-539 CNS) was over 25 µM, the GI50 (HOP-92 NSCLC) was over 25 µM and the TGI (HOP-92 NSCLC) was over 25 µM. It also gave a GI50 (PC-3 prostate) of 20.9 µM, a TGI (PC-3 prostate) of over 25 µM and a GI50 (MALME-3M melanoma) of 5.06 µM. It also gave a TGI (MALME-3M melanoma) of 20 µM, a GI50 (A498 renal) of 4.82 µM and a TGI (A498 renal) of 24.9 µM. The GI50 (K-562 leukemia) was 5.94 µM, the TGI (K-562 leukemia) was over 25 µM and the GI50 (HOP-62 NSCLC) was 10.9 µM. The TGI (HOP-62 NSCLC) was over 25 µM, the GI50 (NCI-H460 lung) was 4.61 µM and the TGI (NCI-H460 lung) was over 25 µM. It also gave a GI50 (HL-60(TB) leukemia) of 4.88 µM, a TGI (HL-60(TB) leukemia) of over 25 µM and a GI50 (OVCAR-4 ovarian) of 20.1 µM. The TGI (OVCAR-4 ovarian) was over 25 µM, the GI50 (ACHN renal) was 2.45 µM and the TGI (ACHN renal) was over 25 µM. For the same compound, the GI50 (COLO 205 colon) was over 25 µM, the TGI (COLO 205 colon) was over 25 µM and the GI50 (SNB-75 CNS) was 3.37 µM. It also gave a TGI (SNB-75 CNS) of over 25 µM, a GI50 (T-47D breast) of over 25 µM and a TGI (T-47D breast) of over 25 µM. For the same compound, the GI50 (CCRF-CEM leukemia) was 13.8 µM, the TGI (CCRF-CEM leukemia) was over 25 µM and the GI50 (SK-MEL-5 melanoma) was 17.9 µM. The TGI (SK-MEL-5 melanoma) was over 25 µM, the GI50 (SN12C renal) was 15.8 µM and the TGI (SN12C renal) was over 25 µM. For the same compound, the GI50 (MCF7 breast) was 9.55 µM, the TGI (MCF7 breast) was over 25 µM and the GI50 (A549 NSCLC) was 11 µM. It also gave a TGI (A549 NSCLC) of over 25 µM, a GI50 (HCT-116 colon) of 6.03 µM and a TGI (HCT-116 colon) of over 25 µM. It also gave a GI50 (DU-145 prostate) of 14.1 µM, a TGI (DU-145 prostate) of over 25 µM and a GI50 (HCT-15 colon) of 1.17 µM. The TGI (HCT-15 colon) was 10.3 µM, the GI50 (BT-549 breast) was over 25 µM and the TGI (BT-549 breast) was over 25 µM. It also gave a GI50 (M14 melanoma) of 22.8 µM, a TGI (M14 melanoma) of over 25 µM and a GI50 (NCI/ADR-RES ovarian) of over 25 µM. For the same compound, the TGI (NCI/ADR-RES ovarian) was over 25 µM, the GI50 (UACC-62 melanoma) was over 25 µM and the TGI (UACC-62 melanoma) was over 25 µM.
